# Results: a melting point compilation (Tetko et al.; mined from patent text by program, amines drawn as free bases though some values may be those of a salt)
row,SMILES,melting point [°C]
1,CC(c1cc(Cl)ccc1N1CCCC1)C(C(N)=O)c1ccc(C(=O)O)cc1 (stereo not given),202 to 204
2,CCCCOc1c(CO)n(CC(C)C)c(=O)c2ccc(OCc3ccccc3)cc12,90 to 91
3,O=C(CCc1cccc([N+](=O)[O-])c1)c1c(O)c2cccnc2n(-c2ccccc2)c1=O,164 to 166
4,O=C(O)c1ccccc1C(=O)c1cc(-c2ccccc2)c(O)c(-c2ccccc2)c1,234
5,C=CCC(C(=O)O)c1ccccc1 (stereo not given),34
6,CCOC(=O)c1cc(=O)cc(-c2ccccc2O)o1,213 to 215
7,c1ccc(-c2nnc(-c3ccc(CN4CCCCCC4)s3)o2)cc1,95 to 97
8,CCN1CCCC(NC(=O)c2cc(C)on2)C1 (stereo not given),84 to 86
9,CCCCCCCCC(Sc1ccccn1)C(=O)Nc1cccc2cnccc12 (stereo not given),81 to 83
10,O=C1C(=O)c2ccc(F)cc2C2=C1SCC1(CCN(CC(O)Cc3ccccc3)CC1)O2 (stereo not given),76 to 77
11,CN1C(=O)C(C)(C)N=C(c2ccccc2F)c2c1ccc(N)c2Br,217 to 220
12,Cc1ccccc1COC1(C)COC(CCl)OC1 (stereo not given),57 to 58
13,CN(C(=O)c1ccc2nonc2c1)[C@H]1CC[C@H](N)CC1,145 to 146
14,N#Cc1c[nH]cc1-c1ccc(Cl)cc1,147 to 148
15,CN(C)C(=O)c1cc2c(nc(C(F)(F)F)n2C)c2c1CCC(c1ccccc1)O2 (stereo not given),223 to 225
16,CCOC(=O)c1cn(Cc2ccccc2)nc1N(Cc1ccccc1)C(=O)Nc1ccccc1,116 to 117
17,CN1CCN(c2nn(S(=O)(=O)c3ccccc3)c3cc(Cl)ccc23)CC1,139 to 141
18,Cn1c(C(=O)OC(C)(C)C)c(O)c2cc(OCc3ccccc3)ccc21,101 to 103
19,CCn1cc(C(=O)O)c(=O)c2cc(F)c(N3CCN(C(C)=O)CC3)cc21,300
20,O=C(NC1CCSc2cc(C(=O)O)ccc21)OCc1ccccc1 (stereo not given),202 to 205

row,SMILES,melting point [°C]
1,CC1(CN2CCC(Oc3ccc(C(F)(F)F)cc3)CC2)Cn2cc([N+](=O)[O-])nc2O1 (stereo not given),113 to 114
2,CCCCCc1c(C(C)C)cc(C(C)C)c(C(C)O)c1-c1ccc(F)cc1 (stereo not given),126
3,Nc1nc(O)c2c(n1)NCC(CCc1ccc(C(=O)N[C@@H](CCC(=O)O)C(=O)O)c(F)c1)C2 (stereo not given in full),199 to 209
4,CC(C)(C)OC(=O)NC(Cc1cc2ccccc2s1)C(=O)O (stereo not given),128 to 129
5,COc1ccccc1N1CCN(CCN(C(=O)C2CCCCC2)c2ccccc2[N+](=O)[O-])CC1,119 to 121
6,CC(=O)c1cccc(C)c1NC(=O)CBr,97 to 100
7,Cc1nn(C)c2nc(N)nc(N)c2c1=O,> 275
8,CS(=O)c1nc(-c2cc(C(C)(C)C)c(O)c(C(C)(C)C)c2)c[nH]1 (stereo not given),106 to 108
9,COc1cccc(C(=O)O)c1-c1ccccc1OC(C)C,139 to 140
10,Clc1ccc2nc(-c3ccccc3)cc(CCC3CCCNC3)c2c1 (stereo not given),> 260
11,C=CCC(C(=O)N1C(=O)OCC1Cc1ccccc1)c1ccc(F)cc1 (stereo not given),103 to 104
12,Cc1cc(C)cc(-c2cc(O)c(SCCc3ccccc3)c(=O)o2)c1,155 to 157
13,CCOC(N)=C(C#N)C#N,233
14,O=C(O)/C=C1\CCc2c(F)cc(F)cc21,238 to 239
15,CCCc1n[nH]c(C(N)=O)c1[N+](=O)[O-],197 to 199
16,CCOC(=O)c1cc2c(C)c(C)cc(N(CC)S(=O)(=O)c3cccs3)c2[nH]1,134 to 135
17,CC(=O)Nc1ccc(S(=O)(=O)Nc2nnc(C(C)(C)C)s2)cc1,137 to 138
18,O=c1c2ccc3cc[nH]c3c2ccn1Cc1ccccc1,211 to 213
19,CC(=O)OCC(O)(CN(C)S(=O)(=O)c1cc(C)ccc1C)c1ccccc1 (stereo not given),84 to 85
20,O=c1n(-c2ccc(OCC(F)(F)C(F)F)cc2)cnn1CC(O)(Cn1cncn1)c1ccc(F)cc1F (racemic),79 to 80
